Assay results reported in patent publication US20170260519A1, “METHOD OF CULTIVATING MICROORGANISMS HAVING NITRILE HYDRATASE ACTIVITY” (priority 2014, published 2017).

Legend:
[1] = tested on: R. rhodochrous “CIBA” (NCIMB 41164); experiment: Relative nitrile hydratase activity after cultivation of R. rhodochrous "CIBA" with different carbon sources; assay type: cell-based, Rhodococcus rhodochrous; settings: 10 g/l, 64 h
Method: In context with the present invention, activity of an nitrile hydratase in the sense of the present invention can be determined as follows: First reacting 100 μl of a cell suspension, cell lysate, dissolved enzyme powder or any other preparation containing the supposed nitrile hydratase with 875 μl of an 50 mM potassium phosphate buffer and 25 μl of acrylonitrile at 25° C. on an eppendorf tube shaker at 1,000 rpm for 10 minutes. After 10 minutes of reaction time, samples are drawn and immediately quenched by adding the same volume of 1.4% hydrochloric acid. After mixing of the sample, cells are removed by centrifugation for 1 minute at 10,000 rpm and the amount of acrylamide formed is determined by analyzing the clear supernatant by HPLC. The concentration of acrylamide shall be between 0.25 and 1.25 mmol/l—if necessary, the sample has to be diluted accordingly and the conversion has to be repeated. The enzyme activity is deduced from the concentration of acrylamide by dividing the acrylamide concentration derived from HPLC analysis by the reaction time, which has been 10 minutes and by multiplying this value with the dilution factor between HPLC sample and original sample. […]) and/or to the nucleotide sequence of SEQ ID NO: 3 (beta-subunit of nitrile hydratase of R. rhodochrous: […]), provided that the polypeptide encoded by said polynucleotide is capable of catalyzing hydration of acrylonitrile to acrylamide (i.e. has nitrile hydratase activity) as described and exemplified herein. […] VIV) and/or to the amino acid sequence of SEQ ID NO: 4 (beta-subunit of nitrile hydratase of R. rhodochrous: […]), provided that said polypeptide is capable of catalyzing hydration of acrylonitrile to acrylamide as described and exemplified herein.
Different sugar/organic acid ratios were evaluated for different strains of Rhodococcus (R. rhodochrous “CIBA” (NCIMB 41164) and R. rhodochrous “J1” (FERM BP-1478)), in a microfermentation system.
The basic cultivation medium contained yeast extract (Biospringer) (1.25 g/l), KH2PO4 (10 g/l), K2HPO4 (10 g/l), (NH4)2SO4 (1 g/l), MgSO4*7H2O (0.375 g/l), CaCl2*2H2O (25 mg/l), Trace element solution (2.5 g/l) (see below), Co(NO3)2 (31.2 mg/l), anti-foam P2000 (BASF) (62.5 mg/l), urea (7 g/l), and ammonium glutamate (2.5 g/l) in H2O.
Trace Element Solution: Citric acid mono hydrate (40 g/l), ZnSO4*7H2O (11 g/l), (NH4)2Fe(SO4)2*6H2O (8.5 g/l), MnSO4*H2O (3 g/l), and CuSO4*5H2O (0.8 g/l) in H2O.
(§1) The medium was then supplemented with 10 g/l of carbon source (saccharide, organic acid or mixture of both as indicated in the Tables below). pH was adjusted to 6.6 using H3PO4 or NaOH. The medium was inoculated directly from cryo stocks to OD 0.05 (measured at 600 nm). Cultivation was carried out at 37° C. for 64 h at 1,100 rpm in a BioLector micro fermentation system (M2P Labs, Baesweiler, Germany) using 48-well flower plates with a working volume of 1.5 ml. After cultivation, samples were drawn, quenched with hydrochloric acid and nitrile hydratase activity was determined as described in Example 2.
Nitrile hydratase activities achieved with the saccharide as sole carbon source were set to 100%.

[2] = tested on: R. rhodochrous “J1” (FERM BP-1478); experiment: Relative nitrile hydratase activity after cultivation of R. rhodochrous "J1" with different carbon sources; assay type: cell-based, Rhodococcus rhodochrous; settings: 10 g/l, 64 h
Method: In context with the present invention, activity of an nitrile hydratase in the sense of the present invention can be determined as follows: First reacting 100 μl of a cell suspension, cell lysate, dissolved enzyme powder or any other preparation containing the supposed nitrile hydratase with 875 μl of an 50 mM potassium phosphate buffer and 25 μl of acrylonitrile at 25° C. on an eppendorf tube shaker at 1,000 rpm for 10 minutes. After 10 minutes of reaction time, samples are drawn and immediately quenched by adding the same volume of 1.4% hydrochloric acid. After mixing of the sample, cells are removed by centrifugation for 1 minute at 10,000 rpm and the amount of acrylamide formed is determined by analyzing the clear supernatant by HPLC. The concentration of acrylamide shall be between 0.25 and 1.25 mmol/l—if necessary, the sample has to be diluted accordingly and the conversion has to be repeated. The enzyme activity is deduced from the concentration of acrylamide by dividing the acrylamide concentration derived from HPLC analysis by the reaction time, which has been 10 minutes and by multiplying this value with the dilution factor between HPLC sample and original sample. […]
Different sugar/organic acid ratios were evaluated for different strains of Rhodococcus (R. rhodochrous “CIBA” (NCIMB 41164) and R. rhodochrous “J1” (FERM BP-1478)), in a microfermentation system. […]
as §1, with “Cultivation was carried out at 37° C. for 64 h at 1,100 rpm in a BioLector micro fermentation system (M2P Labs, Baesweiler, Germany) using 48-well flower plates with a working volume of 1.5 ml.” left out, “2. […]” for “2.”

[3] = Only acid as carbon source, 37° C., fructose as sole carbon source = 100%
[4] = Only acid as carbon source, 37° C., glucose as sole carbon source = 100%
[5] = Only acid as carbon source, 37° C., mannose as sole carbon source = 100%
[6] = Only acid as carbon source, 37° C., ribose as sole carbon source = 100%
[7] = Only saccharide as carbon source, set to 100%

Compound | relative nitrile hydratase activity [1, 3] [%] | relative nitrile hydratase activity [1, 4] [%] | relative nitrile hydratase activity [1, 5] [%] | relative nitrile hydratase activity [1, 6] [%] | relative nitrile hydratase activity [2, 7] [%] | relative nitrile hydratase activity [1, 7] [%] | relative nitrile hydratase activity [2, 3] [%] | relative nitrile hydratase activity [2, 4] [%]
O=C(O)CC(O)(CC(=O)O)C(=O)O [Citric, citric acid] | 32 | 164 | 1315 | 1409 | – | – | – | –
O=C(CO)[C@@H](O)[C@H](O)[C@H](O)CO [Fructose, fructose] | – | – | – | – | 100 | 100 | – | –
CC(O)C(=O)O (stereo not drawn) [Lactic, lactic acid] | – | – | – | – | – | – | 73 | 1963
O=C(O)CC(O)C(=O)O (stereo not drawn) [Malic, malic acid] | 39 | 197 | 1579 | 1693 | – | – | – | –
O=C[C@H](O)[C@H](O)[C@H](O)CO [Ribose, ribose] | – | – | – | – | – | 100 | – | –
O=C(O)CCC(=O)O [Succinic, succinic acid] | 30 | 150 | 1204 | 1291 | – | – | – | –
O=C(O)C(O)C(O)C(=O)O (stereo not drawn) [Tartaric, tartaric acid] | 34 | 173 | 1388 | 1487 | – | – | – | –
